Each block holds one molecule with its values, some of them ahead of it. Active and inactive are the calls of the source. No cut-off for these calls is given here.
Experiments:
[1] = Metabolic stability in C57BL/6 mouse liver microsome assessed as half life; assay type: ADME; conditions: liver microsomes
in vitro [2] = conditions: rat, liver microsomes
in vitro [3] = conditions: human, liver microsomes
[4] = target: Macrophage metalloelastase MMP-12 (Homo sapiens) (UniProt P39900); test: Inhibition of MMP12
Collagenase 3 = Collagenase 3 (Homo sapiens, UniProt P45452); test: Inhibition of human recombinant MMP13
[5] = Volume of distribution at steady state in C57BL/6 mouse at 2 mg/kg, iv; assay type: ADME, organism-based; set-up: dose 2 mg/kg, route intravenous; conditions: in vivo, read-out: Vdss
[6] = Clearance in C57BL/6 mouse at 2 mg/kg, iv; assay type: ADME, organism-based; set-up: dose 2 mg/kg, route intravenous; conditions: in vivo
[7] = Half life in C57BL/6 mouse at 30 mg/kg, po; assay type: ADME, organism-based; set-up: dose 30 mg/kg, route oral; conditions: in vivo
[8] = Cmax in C57BL/6 mouse at 30 mg/kg, po; assay type: ADME, organism-based; set-up: dose 30 mg/kg, route oral; conditions: in vivo
[9] = Oral bioavailability in C57BL/6 mouse at 30 mg/kg; assay type: ADME, organism-based; conditions: in vivo
[10] = target: Matrix metalloproteinase-9 (Homo sapiens, UniProt P14780); test: Inhibition of human MMP9
[11] = target: Matrix metalloproteinase-14 (Homo sapiens, UniProt P50281); test: Inhibition of human MMP14
[12] = target: Disintegrin and metalloproteinase domain-containing protein 17 (Homo sapiens, UniProt P78536); test: Inhibition of human TACE
[13] = target: A disintegrin and metalloproteinase with thrombospondin motifs 4 (Homo sapiens, UniProt O75173); test: Inhibition of human Aggrecanase 1
[14] = target: A disintegrin and metalloproteinase with thrombospondin motifs 5 (Homo sapiens, UniProt Q9UNA0); test: Inhibition of human Aggrecanase 2
[15] = target: Voltage-gated inwardly rectifying potassium channel KCNH2 (Homo sapiens, UniProt Q12809); test: Inhibition of human ERG at 10 uM by ion works assay
Mus musculus [16] = test: Inhibition of human recombinant MMP12-induced ear-edema in C57BL/6 mouse assessed as decrease in ear edema at 30 mg/kg, po bid administered 2 hrs post challenge; assay type: functional; conditions: C57BL/6, 2 h
Mus musculus [17] = test: Inhibition of human recombinant MMP12-induced ear-edema in C57BL/6 mouse assessed as decrease in ear edema at 10 mg/kg, po bid administered 2 hrs post challenge; assay type: functional; conditions: C57BL/6, 2 h
Mus musculus [18] = test: Inhibition of human recombinant MMP12-induced ear-edema in C57BL/6 mouse assessed as decrease in ear edema at 3 mg/kg, po bid administered 2 hrs post challenge; assay type: functional; conditions: C57BL/6, 2 h
Ovis aries [19] = test: Inhibition of carbachol-induced airway hyper-responsiveness in Ascaris suum challenged sheep asthma model at 10 mg/kg, po; assay type: functional, organism-based; set-up: dose 10 mg/kg
Ovis aries [20] = test: Inhibition of EAR phase of bronchoconstrictive in Ascaris suum challenged sheep asthma model at 10 mg/kg, po twice the day prior to allergen challenge and third dose 1 hr prior to allergen challenge; assay type: functional, organism-based; set-up: dose 10 mg/kg; conditions: Lung
Cytochrome P450 2D6 = Cytochrome P450 2D6 (Homo sapiens, UniProt P10635); test: Inhibition of CYP2D6; assay type: ADME
Cytochrome P450 2C9 = Cytochrome P450 2C9 (Homo sapiens, UniProt P11712); test: Inhibition of CYP2C9; assay type: ADME
Cytochrome P450 3A4 = Cytochrome P450 3A4 (Homo sapiens, UniProt P08684); test: Inhibition of CYP3A4; assay type: ADME
[21] = Half life in C57BL/6 mouse at 10 mg/kg, po; assay type: ADME, organism-based; set-up: dose 10 mg/kg, route oral; conditions: in vivo
[22] = Cmax in C57BL/6 mouse at 10 mg/kg, po; assay type: ADME, organism-based; set-up: dose 10 mg/kg, route oral; conditions: in vivo
[23] = Oral bioavailability in C57BL/6 mouse at 10 mg/kg; assay type: ADME, organism-based; conditions: in vivo
[24] = target: Macrophage metalloelastase (Mus musculus, UniProt P34960); test: Inhibition of mouse MMP12
[25] = target: Macrophage metalloelastase (Rattus norvegicus, UniProt Q63341); test: Inhibition of rat MMP12
[26] = Inhibition of sheep MMP12; set-up: species or system Ovis aries
Interstitial collagenase = Interstitial collagenase (Homo sapiens, UniProt P03956); test: Inhibition of human MMP1
[27] = target: 72 kDa type IV collagenase (Homo sapiens, UniProt P08253); test: Inhibition of human MMP2
Stromelysin-1 = Stromelysin-1 (Homo sapiens, UniProt P08254); test: Inhibition of human MMP3
Matrilysin = Matrilysin (Homo sapiens, UniProt P09237); test: Inhibition of human MMP7
Neutrophil collagenase = Neutrophil collagenase (Homo sapiens, UniProt P22894); test: Inhibition of human MMP8

Sequence of Stromelysin-1 (P08254 whole entry): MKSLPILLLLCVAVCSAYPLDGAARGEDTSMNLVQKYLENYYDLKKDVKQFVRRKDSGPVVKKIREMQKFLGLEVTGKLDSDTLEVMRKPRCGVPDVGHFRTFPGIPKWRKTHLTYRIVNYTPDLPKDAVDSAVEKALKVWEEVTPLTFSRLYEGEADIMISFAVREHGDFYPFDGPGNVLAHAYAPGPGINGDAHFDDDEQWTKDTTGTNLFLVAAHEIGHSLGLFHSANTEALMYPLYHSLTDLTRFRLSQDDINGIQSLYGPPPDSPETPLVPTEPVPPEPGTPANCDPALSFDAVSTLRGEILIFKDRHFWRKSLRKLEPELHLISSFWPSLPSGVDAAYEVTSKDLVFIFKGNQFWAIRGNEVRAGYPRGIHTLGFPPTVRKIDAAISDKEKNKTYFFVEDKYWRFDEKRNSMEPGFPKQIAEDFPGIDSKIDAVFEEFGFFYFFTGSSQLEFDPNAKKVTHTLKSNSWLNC
Sequence of Interstitial collagenase (P03956 whole entry): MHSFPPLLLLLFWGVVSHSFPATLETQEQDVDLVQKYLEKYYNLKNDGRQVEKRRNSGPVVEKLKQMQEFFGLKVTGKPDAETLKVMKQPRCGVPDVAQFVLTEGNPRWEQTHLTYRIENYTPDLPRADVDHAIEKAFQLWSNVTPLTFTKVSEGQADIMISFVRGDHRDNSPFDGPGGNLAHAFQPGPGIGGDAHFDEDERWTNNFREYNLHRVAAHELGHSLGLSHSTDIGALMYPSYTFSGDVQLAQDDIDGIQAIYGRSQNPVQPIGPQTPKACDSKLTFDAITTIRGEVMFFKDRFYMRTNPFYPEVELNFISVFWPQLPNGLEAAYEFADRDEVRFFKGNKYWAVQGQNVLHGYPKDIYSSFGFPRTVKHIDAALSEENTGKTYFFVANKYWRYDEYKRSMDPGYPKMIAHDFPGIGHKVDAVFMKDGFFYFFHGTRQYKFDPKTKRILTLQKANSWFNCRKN
Sequence of Cytochrome P450 2C9 (P11712 whole entry): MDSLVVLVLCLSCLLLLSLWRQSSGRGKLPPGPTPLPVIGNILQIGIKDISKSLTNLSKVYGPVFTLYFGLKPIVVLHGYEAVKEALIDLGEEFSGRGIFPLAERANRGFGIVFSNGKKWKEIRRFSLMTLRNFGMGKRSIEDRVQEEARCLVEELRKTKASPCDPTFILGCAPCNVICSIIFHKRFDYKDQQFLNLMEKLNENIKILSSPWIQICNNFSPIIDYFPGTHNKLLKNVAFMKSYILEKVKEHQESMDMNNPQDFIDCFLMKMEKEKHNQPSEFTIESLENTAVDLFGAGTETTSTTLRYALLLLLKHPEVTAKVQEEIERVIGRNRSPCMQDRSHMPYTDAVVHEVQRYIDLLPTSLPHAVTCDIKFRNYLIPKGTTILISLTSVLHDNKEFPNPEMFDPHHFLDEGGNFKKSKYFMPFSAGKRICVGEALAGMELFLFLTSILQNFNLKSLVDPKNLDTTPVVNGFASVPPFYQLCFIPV
Sequence of Cytochrome P450 2D6 (P10635 whole entry): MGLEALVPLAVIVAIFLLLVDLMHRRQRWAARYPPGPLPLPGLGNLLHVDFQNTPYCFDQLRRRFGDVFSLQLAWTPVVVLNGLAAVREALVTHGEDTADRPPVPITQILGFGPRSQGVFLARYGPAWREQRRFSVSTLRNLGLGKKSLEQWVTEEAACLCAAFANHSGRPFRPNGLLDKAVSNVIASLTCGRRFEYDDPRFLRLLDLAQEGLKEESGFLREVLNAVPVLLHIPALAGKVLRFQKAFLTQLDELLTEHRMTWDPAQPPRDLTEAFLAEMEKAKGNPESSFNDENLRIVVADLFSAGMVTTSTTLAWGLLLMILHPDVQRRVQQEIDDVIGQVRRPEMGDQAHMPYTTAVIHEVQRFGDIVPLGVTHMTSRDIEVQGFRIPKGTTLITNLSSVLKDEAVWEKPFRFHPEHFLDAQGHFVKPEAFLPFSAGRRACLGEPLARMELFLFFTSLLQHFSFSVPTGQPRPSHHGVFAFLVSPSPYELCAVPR
Sequence of Macrophage metalloelastase (Rattus norvegicus, UniProt Q63341) (Q63341 whole entry): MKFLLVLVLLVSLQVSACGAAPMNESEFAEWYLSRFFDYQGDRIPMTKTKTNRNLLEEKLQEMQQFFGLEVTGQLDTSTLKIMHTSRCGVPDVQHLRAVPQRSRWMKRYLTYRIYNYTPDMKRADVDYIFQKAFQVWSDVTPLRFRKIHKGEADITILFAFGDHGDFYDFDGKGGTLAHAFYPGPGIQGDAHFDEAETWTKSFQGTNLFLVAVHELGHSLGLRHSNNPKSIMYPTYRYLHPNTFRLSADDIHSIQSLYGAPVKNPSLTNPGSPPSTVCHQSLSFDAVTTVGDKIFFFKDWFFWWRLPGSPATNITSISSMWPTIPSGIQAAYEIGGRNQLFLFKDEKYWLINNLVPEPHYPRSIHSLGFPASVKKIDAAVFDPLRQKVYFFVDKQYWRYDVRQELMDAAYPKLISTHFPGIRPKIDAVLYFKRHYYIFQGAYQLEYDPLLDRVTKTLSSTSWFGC
Sequence of Cytochrome P450 3A4 (P08684 whole entry): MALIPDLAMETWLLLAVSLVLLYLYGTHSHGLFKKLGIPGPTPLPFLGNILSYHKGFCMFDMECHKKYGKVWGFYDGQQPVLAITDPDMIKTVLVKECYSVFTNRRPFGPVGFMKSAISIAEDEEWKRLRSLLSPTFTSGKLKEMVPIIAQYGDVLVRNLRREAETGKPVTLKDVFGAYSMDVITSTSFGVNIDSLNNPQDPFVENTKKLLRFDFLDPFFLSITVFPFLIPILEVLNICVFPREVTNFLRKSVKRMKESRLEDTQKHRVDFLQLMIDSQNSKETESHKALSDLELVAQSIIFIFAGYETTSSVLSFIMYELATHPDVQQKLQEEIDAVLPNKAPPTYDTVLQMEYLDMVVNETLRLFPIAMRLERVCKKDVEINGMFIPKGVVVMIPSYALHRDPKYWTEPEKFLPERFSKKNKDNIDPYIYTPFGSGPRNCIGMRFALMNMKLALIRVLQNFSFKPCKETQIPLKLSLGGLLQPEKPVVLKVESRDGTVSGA
Sequence of Matrix metalloproteinase-9 (P14780 whole entry): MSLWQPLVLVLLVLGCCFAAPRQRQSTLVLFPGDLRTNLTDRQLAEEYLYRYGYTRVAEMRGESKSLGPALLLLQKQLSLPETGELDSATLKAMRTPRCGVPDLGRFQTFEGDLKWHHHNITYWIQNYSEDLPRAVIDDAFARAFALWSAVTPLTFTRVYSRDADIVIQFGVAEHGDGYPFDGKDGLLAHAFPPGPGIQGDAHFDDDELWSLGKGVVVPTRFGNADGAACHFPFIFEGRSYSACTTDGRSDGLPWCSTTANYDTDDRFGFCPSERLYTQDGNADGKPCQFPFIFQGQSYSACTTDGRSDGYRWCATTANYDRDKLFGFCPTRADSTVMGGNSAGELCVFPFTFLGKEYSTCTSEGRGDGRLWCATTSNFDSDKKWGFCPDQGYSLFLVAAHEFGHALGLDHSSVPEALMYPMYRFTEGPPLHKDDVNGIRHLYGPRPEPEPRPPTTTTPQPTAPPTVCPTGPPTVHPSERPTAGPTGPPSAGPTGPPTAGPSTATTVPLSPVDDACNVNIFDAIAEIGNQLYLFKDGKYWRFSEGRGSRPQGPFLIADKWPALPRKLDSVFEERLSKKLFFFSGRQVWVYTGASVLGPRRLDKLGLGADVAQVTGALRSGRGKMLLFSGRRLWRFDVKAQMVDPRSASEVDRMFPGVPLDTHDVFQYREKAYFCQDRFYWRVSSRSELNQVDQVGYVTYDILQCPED
Sequence of Macrophage metalloelastase (Mus musculus, UniProt P34960) (P34960 whole entry): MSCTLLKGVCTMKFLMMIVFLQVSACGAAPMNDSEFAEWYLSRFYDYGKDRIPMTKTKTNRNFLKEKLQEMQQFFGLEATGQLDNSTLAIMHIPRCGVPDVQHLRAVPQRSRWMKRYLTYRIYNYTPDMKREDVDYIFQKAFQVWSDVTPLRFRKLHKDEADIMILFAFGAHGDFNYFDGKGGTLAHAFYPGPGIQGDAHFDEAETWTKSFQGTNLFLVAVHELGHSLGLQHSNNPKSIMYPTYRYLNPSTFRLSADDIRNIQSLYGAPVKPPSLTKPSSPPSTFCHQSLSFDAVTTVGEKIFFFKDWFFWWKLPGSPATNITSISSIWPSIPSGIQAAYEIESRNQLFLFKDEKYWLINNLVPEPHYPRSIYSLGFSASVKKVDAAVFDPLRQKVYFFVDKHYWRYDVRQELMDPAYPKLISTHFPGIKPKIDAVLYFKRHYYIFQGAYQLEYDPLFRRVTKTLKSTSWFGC
Sequence of A disintegrin and metalloproteinase with thrombospondin motifs 4 (O75173 whole entry): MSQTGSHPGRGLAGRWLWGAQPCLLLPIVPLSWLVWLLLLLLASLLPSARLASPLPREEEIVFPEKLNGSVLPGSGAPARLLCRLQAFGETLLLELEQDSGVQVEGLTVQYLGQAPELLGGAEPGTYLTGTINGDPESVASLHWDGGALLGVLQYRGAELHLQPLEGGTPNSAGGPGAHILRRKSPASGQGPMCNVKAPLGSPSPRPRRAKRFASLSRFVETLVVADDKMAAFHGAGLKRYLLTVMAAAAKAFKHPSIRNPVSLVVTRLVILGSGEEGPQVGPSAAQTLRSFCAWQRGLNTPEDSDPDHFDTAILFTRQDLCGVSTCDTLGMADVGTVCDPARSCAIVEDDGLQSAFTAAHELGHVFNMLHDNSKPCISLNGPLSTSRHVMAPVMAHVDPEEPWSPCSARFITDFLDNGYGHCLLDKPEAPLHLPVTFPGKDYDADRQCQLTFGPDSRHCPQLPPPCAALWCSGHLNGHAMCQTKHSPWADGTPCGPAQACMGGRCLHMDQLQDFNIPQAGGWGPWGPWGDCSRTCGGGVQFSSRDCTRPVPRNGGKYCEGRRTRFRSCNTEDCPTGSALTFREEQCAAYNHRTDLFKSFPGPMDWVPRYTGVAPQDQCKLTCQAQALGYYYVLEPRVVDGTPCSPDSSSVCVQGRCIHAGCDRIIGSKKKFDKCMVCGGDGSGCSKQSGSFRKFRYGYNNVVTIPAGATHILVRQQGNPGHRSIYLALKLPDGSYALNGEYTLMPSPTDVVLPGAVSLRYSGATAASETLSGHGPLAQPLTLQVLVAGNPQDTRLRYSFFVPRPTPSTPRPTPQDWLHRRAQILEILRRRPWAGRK

SMILES: CC(C)[C@@H](NS(=O)(=O)c1ccc2sc3ccccc3c2c1)C(=O)O
- IC50 (Collagenase 3): 13.8 µM

SMILES: CCOC(=O)Nc1ccc2c(c1)sc1cc(S(=O)(=O)N[C@H](C(=O)O)C(C)C)ccc12
- half-life [1]: > 30 min
- IC50 (Collagenase 3): 0.056 µM
- half-life (in vitro [2]): > 30 min
- half-life (in vitro [3]): > 30 min

SMILES: CCNC(=O)Nc1ccc2c(c1)sc1cc(S(=O)(=O)N[C@H](C(=O)O)C(C)C)ccc12
- half-life [1]: > 30 min
- IC50 (Collagenase 3): 0.809 µM
- half-life (in vitro [2]): > 30 min
- half-life (in vitro [3]): > 30 min

SMILES: CC(C)[C@@H](NS(=O)(=O)c1ccc2c(c1)sc1cc(NC(=O)Nc3ccccc3)ccc12)C(=O)O
- half-life [1]: > 30 min
- IC50 (Collagenase 3): 1.29 µM
- half-life (in vitro [2]): > 30 min
- half-life (in vitro [3]): > 30 min

SMILES: COC(=O)Nc1ccc2c(c1)oc1cc(S(=O)(=O)N[C@@H](C(=O)O)C(C)C)ccc12
- half-life [1]: > 30 min
- IC50 (Collagenase 3): 0.215 µM
- half-life (in vitro [2]): > 30 min
- half-life (in vitro [3]): > 30 min

SMILES: CC(C)[C@H](NS(=O)(=O)c1ccc2c(c1)sc1cc(NC(=O)Oc3ccc(F)cc3)ccc12)C(=O)O
- half-life [1]: > 30 min
- IC50 (Collagenase 3): 0.217 µM
- half-life (in vitro [2]): > 30 min
- half-life (in vitro [3]): > 30 min

SMILES: COC(=O)Nc1ccc2sc3cc(S(=O)(=O)N[C@@H](C(=O)O)C(C)C)ccc3c2c1
- half-life [1]: > 30 min
- IC50 (Collagenase 3): 0.00122 µM
- Vd [5]: 3.7 L/kg
- clearance [6]: 3.59 L/h/kg
- half-life [7]: 276 min
- Cmax [8]: 0.738 µg/mL
- bioavailability [9]: 19%
- half-life (in vitro [2]): > 30 min
- half-life (in vitro [3]): > 30 min

SMILES: CC(C)[C@H](NS(=O)(=O)c1ccc2c(c1)sc1cc(N3CCOC3=O)ccc12)C(=O)O
- half-life [1]: > 30 min
- IC50 (Collagenase 3): 0.14 µM
- half-life (in vitro [2]): > 30 min
- half-life (in vitro [3]): > 30 min

SMILES: CC(C)[C@H](NS(=O)(=O)c1ccc2c(c1)oc1cc(NC(=O)NCCc3cccs3)ccc12)C(=O)O
- half-life [1]: > 30 min
- IC50 (Collagenase 3): 0.187 µM
- half-life (in vitro [2]): > 30 min
- half-life (in vitro [3]): > 30 min

SMILES: COC(=O)Nc1ccc2c(c1)sc1cc(S(=O)(=O)N[C@@H](C(=O)O)C(C)C)ccc12
- half-life [1]: > 30 min
- IC50 (Collagenase 3): 1.35 µM
- half-life (in vitro [2]): > 30 min
- half-life (in vitro [3]): > 30 min

Now from value to molecule, other results behind:

- half-life [1]: > 30 min
- half-life (in vitro [2]): > 30 min
- half-life (in vitro [3]): > 30 min
- IC50 [4]: 0.002 µM
SMILES: COC(=O)Nc1ccc2oc3cc(S(=O)(=O)N[C@H](C(=O)O)C(C)C)ccc3c2c1

- half-life [1]: > 30 min
- IC50 (Collagenase 3): 0.023 µM
- half-life (in vitro [2]): > 30 min
- half-life (in vitro [3]): > 30 min
SMILES: C#CCCOC(=O)Nc1ccc2c(c1)sc1cc(S(=O)(=O)N[C@H](C(=O)O)C(C)C)ccc12

- IC50 (Collagenase 3): 1.14 µM
SMILES: CC(C)[C@H](NS(=O)(=O)c1ccc2c(c1)sc1ccc(NS(C)(=O)=O)cc12)C(=O)O

- half-life [1]: > 30 min
- IC50 (Collagenase 3): 0.2 µM
- half-life (in vitro [2]): > 30 min
- half-life (in vitro [3]): > 30 min
SMILES: CC(C)[C@H](NS(=O)(=O)c1ccc2c(c1)sc1cc(NC(=O)NCc3ccccc3)ccc12)C(=O)O

- half-life [1]: > 30 min
- IC50 (Collagenase 3): 0.37 µM
- half-life (in vitro [2]): > 30 min
- half-life (in vitro [3]): > 30 min
SMILES: CC(C)[C@H](NS(=O)(=O)c1ccc2c(c1)oc1cc(N3CCOC3=O)ccc12)C(=O)O

- half-life [1]: > 30 min
- IC50 (Collagenase 3): 0.235 µM
- half-life (in vitro [2]): > 30 min
- half-life (in vitro [3]): > 30 min
SMILES: Cc1ccc(OC(=O)Nc2ccc3c(c2)sc2cc(S(=O)(=O)N[C@H](C(=O)O)C(C)C)ccc23)cc1

- IC50 [10]: 0.318 µM
- IC50 [11]: 2.25 µM
- IC50 [12]: 40 µM
- IC50 [13]: 18 µM
- IC50 [14]: 22.6 µM
- half-life [1]: > 30 min
- inhibition (INH) (Cytochrome P450 2D6): Not Active
- inhibition (INH) (Cytochrome P450 2C9): Not Active
- inhibition (INH) (Cytochrome P450 3A4): Not Active
- IC50 (Collagenase 3): 0.106 µM
- Vd [5]: 0.8 L/kg
- clearance [6]: 1.08 L/h/kg
- half-life [21]: 186 min
- Cmax [22]: 0.456 µg/mL
- bioavailability [23]: 17%
- IC50 [24]: 0.027 µM
- IC50 [25]: 0.072 µM
- IC50 [26]: 0.002 µM
- IC50 (Interstitial collagenase): 5.46 µM
- IC50 [27]: 0.066 µM
- IC50 (Stromelysin-1): 0.3 µM
- IC50 (Matrilysin): 7.83 µM
- IC50 (Neutrophil collagenase): 0.037 µM
- half-life (in vitro [2]): > 30 min
- half-life (in vitro [3]): > 30 min
SMILES: CC(C)[C@H](NS(=O)(=O)c1ccc2c(c1)oc1ccc(N3CCOC3=O)cc12)C(=O)O
- inhibition (INH) [15]: Not Active
- inhibition in vivo at 30 mg/kg (Mus musculus [16]): 40.3%
- inhibition in vivo at 10 mg/kg (Mus musculus [17]): 35.1%
- inhibition in vivo at 3 mg/kg (Mus musculus [18]): 25.2%
- inhibition (Ovis aries [19]): Active
- inhibition (Ovis aries [20]): Active

- IC50 (Collagenase 3): 0.277 µM
SMILES: CC(C)[C@@H](NS(=O)(=O)c1ccc2c(c1)sc1ccc(NS(C)(=O)=O)cc12)C(=O)O
